One series concerns the target BTK (Homo sapiens (Human), UniProt Q06187). As to the kind of experiment: Kinase inhibition test (HTRF). The class given is biochemical. As to conditions: 1 nM BTK, 20 μM ATP. The method, then: (1) Kinase Inhibition Test
1) Compound dilution: The test compounds were dissolved in DMSO to make a 10 mM stock solution. […] 2) Kinase assay: in a 10 μL reaction system (containing buffer 50 mM Hepes (pH 7.5), 5 mM MgCl2, 0.01 mM Na3VO4, 1% BSA) in a 384-well plate, 1 nM BTK, 1 μM biotin-TK peptide (from HTRF-TK kit) and 20 μM ATP were incubated at 23° C. for 90 minutes.
A general note: Time-resolved FRET reads energy transfer from a long-lived donor to a nearby acceptor.

The next series has as its system RAMOS. Put plainly: RAMOS IC50. The class given is cell-based. As to conditions: Homo sapiens.
A short description of series [1]: Metabolic stability in rat liver microsomes. The class given is in vitro ADME, SD rat. As to conditions: Sprague-Dawley, pH 7.4, 1 μM compound, 0.5 mg/mL protein. The method, then: (§1) (2) Metabolic Stability Evaluation Experiments in Microsome:
(§2) 2) Preparation of phosphate buffer (100 mM, pH 7.4): 150 mL of pre-formulated 0.5 M potassium dihydrogen phosphate was taken and mixed with 700 mL of 0.5 M dipotassium hydrogen phosphate solution, and the pH of the mixture was adjusted to 7.4 with 0.5 M dipotassium hydrogen phosphate solution. Before use it was diluted by 5 times with ultrapure water, and magnesium chloride was added to obtain the phosphate buffer (100 mM), which contains 100 mM potassium phosphate, 3.3 mM magnesium chloride, and a pH of 7.4. […] 4) Preparation of stop solution: The stop solution was an acetonitrile solution containing 50 ng/mL propranolol hydrochloride and 200 ng/mL tolbutamide (internal standard). […] 6) Incubation of the sample: The stock solutions of the corresponding compounds were diluted to 0.25 mM with an aqueous solution containing 70% acetonitrile, which is used as a working solution and is ready for use. 398 μL of human liver microsomes dilution or rat liver microsome dilution was added to 96-well incubation plates (N=2), and 2 μL of 0.25 mM working solutions were added respectively, and evenly mixed. 7) Determination of metabolic stability: 300 μL of pre-cooled stop solution was added to each well of a 96-well deep well plate, which was placed on ice as a stop plate. The 96-well incubation plate and the NADPH regeneration system were placed in a 37° C. water bath, shaken at 100 rpm, and pre-incubated for 5 min. 80 μL of the incubation solution was taken from each well of the incubation plate, added to the stop plate, evenly mixed, and 20 μL of the NADPH regeneration system solution was added as 0 minute sample. Then, 80 μL of the NADPH regeneration system solution was added to each well of the incubation plate to start the reaction and start timing. […] 100 μL of the reaction solutions were taken at 10, 30, and 90 min, respectively, added to the stop place, and the reaction was terminated by vortexing for 3 min. The plate was centrifuged at 5000×g for 10 min at 4° C. 100 μL of the supernatant was taken and added into a 96-well plate to which 100 μL of distilled water was previously added, evenly mixed, and samples were analyzed by LC-MS/MS. 8) Data analysis: The peak area of the corresponding compounds and the internal standard was detected by LC-MS/MS system, and the ratio of the peak area of the compounds to the internal standard was calculated.
(In general: Liver microsomes are vesicles of endoplasmic reticulum, rich in cytochrome P450 enzymes.)

A short description of series [2]: Metabolic stability in human liver microsomes. The class given is in vitro ADME. As to conditions: pH 7.4, 1 μM compound, 0.5 mg/mL protein. The method, then:
as §1, §2

Series [3] is described as follows: Pharmacokinetic experiments in rats. As to conditions: male, Sprague-Dawley, rat, in vivo.
For series [4] the following is noted: male, Sprague-Dawley, rat, in vivo.
The nature of another series: in vivo. As to conditions: male, Sprague-Dawley, rat.

The values below come from patent US11186578B2, “Substituted pyrrolo[3,2-d]pyrimidines and pyrazolo[4,3-d]pyrimidines as tyrosine kinase inhibitors” (Shenzhen TargetRx, Inc., priority 2016, dated 2021).

Chain of BTK (Q06187 whole entry): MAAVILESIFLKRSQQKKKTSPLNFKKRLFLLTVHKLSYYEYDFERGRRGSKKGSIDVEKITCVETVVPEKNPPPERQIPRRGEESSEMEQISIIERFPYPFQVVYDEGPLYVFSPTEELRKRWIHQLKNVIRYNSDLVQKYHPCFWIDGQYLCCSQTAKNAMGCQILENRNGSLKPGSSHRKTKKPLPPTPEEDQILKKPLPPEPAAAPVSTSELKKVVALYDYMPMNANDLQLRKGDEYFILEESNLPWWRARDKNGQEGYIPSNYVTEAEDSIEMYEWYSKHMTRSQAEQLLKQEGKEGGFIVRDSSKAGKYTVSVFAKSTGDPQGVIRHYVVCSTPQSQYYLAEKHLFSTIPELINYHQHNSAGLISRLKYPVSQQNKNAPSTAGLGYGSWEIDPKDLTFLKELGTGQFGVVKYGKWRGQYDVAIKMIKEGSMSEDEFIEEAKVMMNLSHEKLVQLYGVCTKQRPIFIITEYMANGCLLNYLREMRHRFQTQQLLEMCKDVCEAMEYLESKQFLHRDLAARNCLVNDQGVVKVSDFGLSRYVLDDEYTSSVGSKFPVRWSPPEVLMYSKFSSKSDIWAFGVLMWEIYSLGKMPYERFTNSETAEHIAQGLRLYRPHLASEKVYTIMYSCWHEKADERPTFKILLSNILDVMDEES

`C=CC(=O)N1CCC[C@H](c2nn(-c3ccc(Oc4ccccc4)cc3)c3c(N)ncnc23)C1` [Example 6, (S)-1-(3-(7-amino-1-(4-phenoxyphenyl)-1H-pyrazolo[4,3-d]pyrimidin-3-yl)piperidin-1-yl)prop-2-en-1-one]: the half-maximal inhibitory concentration (IC50) was less than 1 nM on BTK and less than 100 nM in the series with RAMOS. The half-life at 1 μM in series [1] came out at 4.1 min; in series [2] it was 12.5 min. The values for the intrinsic clearance (microsomal CLint) at 1 μM in series [1] and in series [2] were 338 µL/min/mg and 111 µL/min/mg, respectively.

`C=CC(=O)N1CCC[C@@H](n2nc(-c3ccc(Oc4ccccc4)cc3)c3c(N)ncnc32)C1` [Ibrutinib]: in series [3] (iv, 0.5 mg/kg), the AUC(0-t) is 437 ng·h/mL, the Cmax was determined as 1230 ng/mL and the Tmax came to 4.8 min. For the same compound, in series [3] (po, 10 mg/kg), the AUC(0-t) is 727 ng·h/mL, the Cmax is 250 ng/mL and the Tmax turned out to be 30 min. The compound also gave a half-inhibitory concentration (IC50) in the series with RAMOS of less than 100 nM.

In the case of `C=CC(=O)N1CCC[C@H](c2cn(-c3ccc(Oc4ccccc4)cc3)c3c(N)ncnc23)C1` [Example 4, (R)-1-(3-(4-amino-5-(4-phenoxyphenyl)-5H-pyrrolo[3,2-d]pyrimidin-7-yl)piperidin-1-yl)prop-2-en-1-one], the half-maximal inhibitory concentration (IC50) was less than 1 nM at BTK and less than 100 nM in the series on RAMOS. Besides, the half-life at 1 μM in series [1] was found to be 2.9 min; in series [2] it was 3.5 min. The microsomal CLint at 1 μM in series [1] was 483 µL/min/mg; in series [2], 399 µL/min/mg.

In series [4], `C=CC(=O)N1CCC[C@@H](c2nc(-c3ccc(Oc4ccccc4)cc3)c3c(N)nccn23)C1` [Example 7, (R)-1-(3-(8-amino-1-(4-phenoxyphenyl)imidazo[1,5-a]pyrazin-3-yl)piperidin-1-yl)prop-2-en-1-one] yielded an F of 23.20%. The IC50 on BTK is less than 1 nM. In the series on RAMOS, this compound had a half-maximal inhibitory concentration (IC50) of less than 100 nM. Further, in series [1], the half-life at 1 μM came out at 2.4 min and the microsomal CLint at 1 μM is 576 µL/min/mg. In addition, in “in vivo” (iv, 0.5 mg/kg), the area under the curve AUC(0-t) was found to be 401 ng·h/mL, the highest concentration (Cmax) is 966 ng/mL and the Tmax is 4.8 min. Further, in the series “in vivo” (po, 10 mg/kg), the AUC(0-t) turned out to be 931 ng·h/mL, the highest concentration (Cmax) is 365 ng/mL and the Tmax stood at 40.2 min. Moreover, in series [2], the half-life at 1 μM amounted to 5.7 min and the intrinsic clearance (microsomal CLint) at 1 μM was found to be 243 µL/min/mg.

Compound `C=CC(=O)N1CCC[C@@H](c2cn(-c3ccc(Oc4ccccc4)cc3)c3c(N)ncnc23)C1` [Example 3, (S)-1-(3-(4-amino-5-(4-phenoxyphenyl)-5H-pyrrolo[3,2-d]pyrimidin-7-yl)piperidin-1-yl)prop-2-en-1-one] displayed an IC50 against BTK of less than 1 nM. In addition, in the series with RAMOS, the IC50 is less than 100 nM. Besides, in series [2], the half-life at 1 μM turned out to be 1.3 min and the microsomal CLint at 1 μM was found to be 1100 µL/min/mg.

For `C=CC(=O)N1CCC[C@@H](c2nn(-c3ccc(Oc4ccccc4)cc3)c3c(N)ncnc23)C1` [Example 5, (R)-1-(3-(7-amino-1-(4-phenoxyphenyl)-1H-pyrazolo[4,3-d]pyrimidin-3-yl)piperidin-1-yl)prop-2-en-1-one], the concentration for half-maximal inhibition (IC50) against BTK is less than 1 nM. The compound also came in with an IC50 in the series on RAMOS of less than 100 nM. Besides, in series [2], the half-life at 1 μM worked out at 1.5 min and the microsomal CLint at 1 μM came out at 922 µL/min/mg.

By IC50 is commonly meant the concentration needed to halve the response being measured. As a reminder, the half-life is the time in which the quantity being followed falls by half. A word on the microsomal CLint: it is the rate of metabolic loss divided by the concentration. What is called AUC(0-t) is exposure summed from dosing to a finite time, without extrapolation to infinity. Higher therefore signals more exposure. Broadly, the Cmax is the peak of the concentration-time curve. As usually defined, the Tmax is the time from dosing to the highest level.
